Assay results reported in ChEMBL document CHEMBL1201862, “PubChem BioAssay data set” (2004).
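Following 48 hours of exposure in 96-well plates, responses at five concentrations were used to interpolate endpoints linearly. Abbreviation: GI50, concentration required for 50% inhibition of growth.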 Activity calls are given as the source filed them. Cut-off read from the data, not from the text of the source: active = GI50 up to about 1.1 µM and inactive = higher.

Tests used:
Assay in all cases: NCI tumour cell line growth inhibition, 48 h
SR = system: SR
A549 = system: A549
HT-29 = system: HT-29
SK-MEL-28 = system: SK-MEL-28
OVCAR-8 = system: OVCAR-8
LOX IMVI = system: LOX IMVI
COLO 205 = system: COLO 205
IGROV-1 = system: IGROV-1
A498 = system: A498
EKVX = system: EKVX
NCI-H460 = system: NCI-H460
SF-268 = system: SF-268
UACC-62 = system: UACC-62
RXF 393 = system: RXF 393
UO-31 = system: UO-31
UACC-257 = system: UACC-257
CCRF-CEM = system: CCRF-CEM
SK-MEL-2 = system: SK-MEL-2
Hs-578T = system: Hs-578T

Measured: GI50

CN1CCC(SC2Cc3cc(Cl)ccc3Sc3ccccc32)CC1 (stereo not drawn)
inactive: SR 8.18 µM | A549 15.3 µM | HT-29 4.24 µM | SK-MEL-28 2.12 µM | OVCAR-8 17.3 µM | LOX IMVI 11.5 µM | COLO 205 12.9 µM | IGROV-1 14.7 µM | A498 16.1 µM | EKVX 18.5 µM | NCI-H460 12.2 µM | SF-268 11.8 µM | UACC-62 3.33 µM | RXF 393 3.66 µM | UO-31 3.86 µM | UACC-257 7.96 µM

N#Cc1cc([N+](=O)[O-])ccc1NC(=O)C(=O)C(C(=O)c1ccc2ccccc2c1)C1OCc2ccccc21 (stereo not drawn)
inactive: SR 2.88 µM | A549 10.7 µM | HT-29 12.9 µM | SK-MEL-28 4.18 µM | OVCAR-8 5.43 µM | LOX IMVI 7.19 µM | COLO 205 9.4 µM | IGROV-1 17.6 µM | CCRF-CEM 3.92 µM | A498 5.56 µM | EKVX 16.4 µM | SK-MEL-2 10.9 µM | NCI-H460 4.38 µM | SF-268 4.11 µM | UACC-62 7.46 µM | RXF 393 3.73 µM | UO-31 12.8 µM | UACC-257 9.33 µM

C/C(=N\NS(=O)(=O)c1ccc(C)cc1)c1c(O)cc(C)oc1=O
inactive: SR > 100 µM | A549 > 100 µM | HT-29 > 100 µM | SK-MEL-28 > 100 µM | OVCAR-8 > 100 µM | LOX IMVI > 100 µM | IGROV-1 > 100 µM | CCRF-CEM > 100 µM | A498 > 100 µM | EKVX > 100 µM | SK-MEL-2 > 100 µM | NCI-H460 > 100 µM | SF-268 > 100 µM | UACC-62 > 100 µM | UO-31 > 100 µM | UACC-257 > 100 µM

COC(=O)[C@](NC(=O)OCc1ccccc1)([C@@H](C)Sc1ccc(C)cc1)C(F)(F)F
inactive: SR 31.1 µM | A549 34.6 µM | HT-29 34.7 µM | SK-MEL-28 91.8 µM | OVCAR-8 19.5 µM | LOX IMVI 39 µM | COLO 205 19.2 µM | IGROV-1 16.5 µM | CCRF-CEM 13.6 µM | A498 > 100 µM | EKVX 57.9 µM | SK-MEL-2 > 100 µM | NCI-H460 34.5 µM | Hs-578T 44.9 µM | SF-268 38.4 µM | UACC-62 39.2 µM | UO-31 51.9 µM | UACC-257 35 µM

CC1OC(OP(=O)(OCc2ccccc2)OCc2ccccc2)C(OC(=O)c2ccccc2)C(OC(=O)c2ccccc2)C1I (stereo not drawn)
inactive: SR 17.5 µM | A549 26.4 µM | HT-29 42.9 µM | SK-MEL-28 86.7 µM | OVCAR-8 98.4 µM | LOX IMVI 47.4 µM | COLO 205 30.2 µM | IGROV-1 76 µM | CCRF-CEM 24.5 µM | EKVX 40.9 µM | SK-MEL-2 23.8 µM | NCI-H460 34 µM | SF-268 52.2 µM | UACC-62 48.9 µM | RXF 393 12.7 µM | UO-31 27.4 µM | UACC-257 39.3 µM

CC(C)C(Br)CCC1=CCC(Br)(Br)C1 (stereo not drawn)
inactive: SR 2.62 µM | A549 17.9 µM | HT-29 13.5 µM | SK-MEL-28 15.6 µM | LOX IMVI 1.41 µM | COLO 205 15.7 µM | IGROV-1 3.21 µM | CCRF-CEM 2.79 µM | A498 18.8 µM | EKVX 17.9 µM | SK-MEL-2 5.77 µM | NCI-H460 16.7 µM | Hs-578T 18.6 µM | SF-268 16.8 µM | UACC-62 6.58 µM | RXF 393 15.2 µM | UO-31 10.2 µM | UACC-257 14.5 µM

CN(C)CCNC(=O)c1cccc2c(NC(CS)C(=O)O)c3ccccc3nc12 (stereo not drawn)
inactive: SR 96.2 µM | A549 4.62 µM | HT-29 4.94 µM | SK-MEL-28 10.7 µM | OVCAR-8 13.5 µM | LOX IMVI 4.41 µM | COLO 205 3.01 µM | IGROV-1 4.88 µM | CCRF-CEM 6.37 µM | A498 > 10 µM | EKVX 11.3 µM | SK-MEL-2 12.1 µM | NCI-H460 15 µM | SF-268 7.94 µM | UACC-62 21.6 µM | UO-31 3.6 µM | UACC-257 10.1 µM

ClCCN(CC#CCCCC#CCN(CCCl)CCCl)CCCl
inactive: SR 2.03 µM | A549 8.99 µM | HT-29 11.4 µM | SK-MEL-28 19.1 µM | OVCAR-8 11 µM | LOX IMVI 5.86 µM | COLO 205 15.6 µM | IGROV-1 14.2 µM | CCRF-CEM 2.3 µM | A498 12.3 µM | EKVX 22.8 µM | SK-MEL-2 13 µM | NCI-H460 2.73 µM | SF-268 8.85 µM | UACC-62 4.98 µM | RXF 393 15.5 µM | UO-31 25.8 µM | UACC-257 13.8 µM
